Measurements published in US20100129434A1, “COMPOSITIONS AND METHODS FOR THE TREATMENT OF MUCORMYCOSIS AND OTHER FUNGAL DISEASES” (priority 2006, published 2010).
≈ marks a conversion by molar mass, not a printed value.

How the values were obtained:
rFTR1 promoter = assay: Green fluorescent protein (GFP) reporter assay, rFTR1 promoter; assay type: cell-based, Rhizopus oryzae; settings: R. oryzae M16 transformed with rFTR1p::GFP
Text: A 1.5 kb fragment upstream of the rFTR10RF was PCR amplified using the following primer pair: sense primer 5′-[…]-3′; and anti-sense primer 5′-[…]-3′. A 2.1 kb fragment containing the constitutively expressed actin promoter was also PCR amplified to use as a control using the following primer pair: sense 5′[…]-3′; and anti-sense:5′ […]-3. Amplified fragments were ligated into the XbaI and EagI sites of plasmid pyr225b (35). GFP was amplified from pGFPB21-43.31 (36), and cloned downstream of either promoter into EagI-SacI sites of the plasmid downstream of either promoter. Finally, a 2.1 kb fragment representing the ORF of pyrF and its native promoter was cloned into SpeI-ClaI sites of the plasmid to serve as a selection marker. […] Purified transformants selected on uracil negative plates were analyzed by Southern blotting.
Expression of rFTR1p and ACT1p were studied in transformants grown in iron-replete medium (i.e. YNB+CSM-URA) or iron-depleted conditions (i.e. YNB+CSM-URA supplemented with 2 mM deferasirox). […] Additionally, a 1 ml sample from each culture was also used to quantify the fluorescence emission using a FACSCaliber™ (Becton Dickinson®) instrument equipped with an argon laser emitting at 488 nm. Spores were gated by forward and side scatter and fluorescence measured in FL1. […]

Mucorales = assay: Deferasirox susceptibilities of multiple clinical isolates of Mucorales (summary); assay type: cell-based
Protocol: Minimum inhibitory concentration (MIC) and minimum fungicidal concentration (MFC) were determined for deferasirox by the method of Espinel-Ingroff using R. oryzae spores starved for iron (Espinel-Ingroff, (2001), supra). Cidality was defined as a <4-fold difference between MIC and MFC.
We next determined the deferasirox susceptibilities of multiple clinical isolates of Mucorales (Table 3). The MIC9OS of deferasirox against Mucor, non-oryzae Rhizopus spp., and R. oryzae were 3.12 to 6.25 μg/ml. MFCs were similar to MICs, and deferasirox was cidal for 28/29 (97%) of isolates. Of note, slight growth was seen within the first twelve hours even at extremely high concentrations of deferasirox. […] Furthermore, the MICs and MFCs of deferasirox against these isolates were well below clinically achievable peak (˜38 μg/ml) and trough serum levels (˜17 μg/ml) of the drug at steady state when administered at the FDA-approved starting dose (20 mg/kg/d).

[1] = system: rhinocerebral mucormycosis; assay: Salvage therapy of a patient with rhinocerebral mucormycosis (case); assay type: in vivo, human; settings: one patient
Protocol: A person with diabetic ketoacidosis presented to the emergency department of an outside hospital with polyuria, polydipsia, left retrobulbar pain, and a left cranial nerve (CN) VI palsy. […] The patient progressed to complete left opthalmoplegia in the first 24 hours. Rhinocerebral mucormycosis was suspected, and they were started on amphotericin B lipid complex (ABLC) at 5 mg/kg/day, along with empiric antibacterial agents, for treatment of sinusitis. On hospital day 2 they underwent endoscopic sphenooethmoid exploration. […] Bacterial culture grew only rare Enterobacter aerogenes.
Over the next twelve days, the patient developed blindness and worsening proptosis in the left eye. He was continued on ABLC and no further surgery was performed.
The patient was transferred to our institution for further management on hospital day 14. Immediately upon arrival, he underwent left orbital exenteration with enucleation and extensive sinus debridement and resection. Intraoperative findings included an ischemic globe with extensive surrounding necrosis of the extraocular muscles.
Antifungal therapy was continued. […] Given the location of the lesion at the superficial aspect of the pons, a dose of intracisternal amphotericin was administered, but the patient refused further doses. The patient remained clinically and neurologically unchanged. […]

## O=C(O)c1ccc(-n2nc(-c3ccccc3O)nc2-c2ccccc2O)cc1 [Deferasirox, 4-[3,5-Bis(2-hydroxyphenyl)-1H-1,2,4-triazol-1-yl]-benzoic acid]
rFTR1 promoter; 2 mM deferasirox
  GFP fluorescence by confocal microscopy: fluorescent
rFTR1 promoter; 2 mM deferasirox overnight, iron-replete less than 1%
  fluorescent spores by flow cytometry: 43%
Mucorales; 28/29 isolates
  isolates for which deferasirox was cidal: 97%
Mucorales; Rhizopus arrhizus, read-out: MIC90s against Mucor, non-oryzae Rhizopus spp., and R. oryzae
  MIC: 3.12 to 6.25 µg/mL (≈ 8.36 to 16.7 µM)
Mucorales; slight growth within first twelve hours, fungi dead by 24 hours
  dependence of cidality: time-dependent, rather than concentration-dependent
[1]; 1000 mg po daily seven days, LAmB continued, one week after treatment
  repeat MRI of the brain: resolution of the edema in the left cerebellar peduncle
[1]; after 7 days of treatment
  radiographic outcome: substantial radiographic improvement
